In assay [1] the test system is E-cadherin linker segment. The assay is described as follows: Titration of immunized mice sera against the E-cadherin linker segment peptides (FIG. 6). It is filed as binding. The settings on record: immunization of mice. The source says: Polyclonal antibodies against synthetic peptides pep_VLS02 (RKAQPVEAGLQIPAC; SEQ ID NO: 4) and pep_VLS03 (VEAGLQIPAC; SEQ ID NO: 3) were produced according to methods known in the art.

The target in a further assay is MMP-9 (Homo sapiens, UniProt P14780). The assay is described as follows: MMP-9 enzymatic activity / E-cadherin cleavage assay. It is filed as biochemical. The procedure:
The synthetic peptide pep_VLS02 was used as a competitive inhibitor of MMP-9. The MMP-9 enzymatic activity is reduced in the presence of synthetic peptide (FIG. 10). The inhibitory effect of pep_VLS02 against cleavage of E-cadherin opens a new window for the development of new inhibitors.
On the other hand, when the polyclonal antibody pAb_VLS02 is added to the assay, in the presence of its corresponding peptide, the MMP-9 activity was reestablished (FIG. 10). Thus, pep_VLS02 and its correspondent polyclonal antibody modulate MMP-9 activity and inhibit the E-cadherin cleavage.

MMP-9, sequence (P14780 94-707, species assumed): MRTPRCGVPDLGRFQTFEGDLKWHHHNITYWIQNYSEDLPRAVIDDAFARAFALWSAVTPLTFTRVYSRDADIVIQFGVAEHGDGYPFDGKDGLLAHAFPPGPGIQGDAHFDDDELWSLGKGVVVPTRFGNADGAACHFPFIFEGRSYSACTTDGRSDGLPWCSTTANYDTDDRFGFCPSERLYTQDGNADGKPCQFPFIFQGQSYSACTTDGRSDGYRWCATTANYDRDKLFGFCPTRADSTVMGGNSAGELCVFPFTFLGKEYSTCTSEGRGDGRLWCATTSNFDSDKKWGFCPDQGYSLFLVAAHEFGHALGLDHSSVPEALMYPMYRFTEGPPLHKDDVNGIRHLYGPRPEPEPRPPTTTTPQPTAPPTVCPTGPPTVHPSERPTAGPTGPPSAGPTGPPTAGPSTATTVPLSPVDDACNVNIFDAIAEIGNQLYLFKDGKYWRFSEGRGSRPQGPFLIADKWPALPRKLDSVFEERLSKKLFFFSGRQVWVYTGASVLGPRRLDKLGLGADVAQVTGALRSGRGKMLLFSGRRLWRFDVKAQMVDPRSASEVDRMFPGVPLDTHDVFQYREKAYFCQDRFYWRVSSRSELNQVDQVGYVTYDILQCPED

As for “RKAQPVEAGLQIPAC [pep_VLS02, synthetic antigenic peptide covering the cleavage site of E-cadherin plus a cysteine residue at the end]”, the immunogenic capacity entry in assay [1] is “confirmed the immunogenic capacity”. Besides, the “E-cadherin cleavage by a metalloprotease” value with MMP-9 (FIG. 10) was “inhibit E-cadherin cleavage”. Besides, in the assay with MMP-9 (in the presence of synthetic peptide as competitive inhibitor), the MMP-9 enzymatic activity result is given as “reduced”.

On to “VEAGLQIPAC [pep_VLS03, synthetic antigenic peptide of the E-cadherin linker segment plus a cysteine residue]”, for which the immunogenic capacity entry in assay [1] is “confirmed the immunogenic capacity”.

Values taken from patent publication US10738127B2, “Monoclonal antibodies prevent cell surface protein shedding and block tumor growth” (VERITAS BIOTECNOLOGIA LTDA, priority 2016, dated 2020).
